# Laboratory results published in patent US8148603B2, “Transgenic ficus, method for producing same and use thereof” (The State of Israel, Ministry of Agriculture & Rural …, priority 2004, dated 2012).
# Legend:
# Type in all cases: in vivo
# [1] = test system: Ficus carica cv. Brown Turkey plants; assay: Herbicide resistance in control and transgenic Brown Turkey tissue culture
# From the text: The pME504 plasmid which comprises the bar gene [Streptomyces hygroscopicus bar gene conferring resistance to herbicide bialaphos (X05822) Thompson, C. J., Movva, N. R., Tizard, R., Crameri, R., Davies, J. E., Lauwereys, M. and Botterman, J. Characterization of the herbicide-resistance gene bar from Streptomyces hygroscopicus EMBO J. 6, 2519-2523 (1987)] was used to transform ‘Brown Turkey’ plants. Herbicide resistance in control and transgenic Brawn Turkey cv. tissue culture line 001 was evaluated.
# [2] = test system: Ficus carica leaf explants; assay: Adventitious shoot regeneration from leaf explants; settings: control explants with TDZ only (0.5-5 mg/l); cv. Brown Turkey
# Experimental: Regeneration experiments were carried out initially with the cultivar Brown Turkey. To examine the effect of culture media on adventitious bud formation, the basal media MS, AP [13] and NN [14]; and various combinations of the auxins IBA and NAA (0.25-2 mg/l), NAA with the cytokinins TDZ (0.5-5 mg/l) and BA (2-5 mg/l) were examined. A control treatment with only TDZ (0.5-5 mg/l) was performed. The regeneration media contained MS basal salt mixture, supplemented with 100 mg/l myo-inositol, 1 mg/l thiamine-HCl, 2-4% sucrose (w/v) and 0.8%, agar (Sigma), at pH 5.7. The effect of the addition of 0.25% activated charcoal (AC) was also examined.
# The youngest three expanded leaves isolated from 3-4 weeks old plants were used as explants. Each leaf was wounded forming three scares perpendicular to the central vein and placed on regeneration medium with the abaxial or adaxial surface down. Minimum ten Petri dishes, each containing ten explants were used per treatment. The cultures were kept for 7 days in low light intensity (2.5 μmol/m^2 s) followed by exposure to high light intensity (40 μmol/m^2 s) at 25° C., in a 16 hL/8 hD photoperiod. Leaf explants were examined after 28 and 35 days and the percentage of explant producing shoots (regeneration capacity) and the mean of adventitious shoots formed per regenerating explant (regeneration efficacy) were recorded. […]
# [3] = test system: Ficus carica leaf explants and shoots; assay: Tolerance of non-inoculated leaf explants and of shoots to kanamycin
# Experimental: In order to use kanamycin as a selection agent for transformed cells, non-inoculated leaf explants from in vitro fig cultures of both cultivars Brown Turkey and Smyrna were tested for their tolerance to kanamycin. Wounded leaves were placed on a regeneration medium supplemented with kanamycin at a concentration selected from 0, 10, 25, 50, 75 and 100 mg/l. The minimal concentration for inhibition of adventitious shoot induction for cv. Brown Turkey was 25 mg/l. However with cv. […] Therefore, the concentration of 50 mg/l kanamycin was initially chosen for selection in the subsequent transformation experiments.
# Leaf explants of 3-4 weeks old in vitro propagated Ficus carica plants were wounded across the main vein and co-cultivated with the disarmed strain EHA105 harboring the plasmid pME504, comprising the genes GUS-int and npt II. Following co-cultivation with A. tumefaciens, explants were initially placed on regeneration medium supplemented with 50 mg/l kanamycin and 150 mg/l ticarcillin and cultured with their adaxial side up. The leaf explants were exposed for one week to low light intensity and then transferred to normal light. Under the selective conditions of 50 mg/l kanamycin, up to 30% of the explants of Brown Turkey and up to 50% of Smyrna formed green shoots after 4 weeks of culture. […]
# [4] = test system: Ficus carica shoots; assay: Root formation of regenerated shoots, rooting in solid medium; settings: for Root formation (%) ± SE, Rooting in solid medium: scored after 4 weeks
# Experimental: (§1) Two methods for rooting were examined. According to one method, each shoot was cultivated individually in a tube with root induction (RI) medium composed of half concentration MS medium (½MS) supplemented with 100 mg/l myo-inositol, 1 mg/l thiamine-HCl, 90 mg/l phloroglucinol, 2% sucrose (w/v), 0.25% activated charcoal (AC) and 0.8% agar (pH=5.7). The effect of IBA at different concentrations (0, 1, 2 mg/l) was also tested. Each treatment included 32 individual plants. According to another method, well developed shoots (up to 3-4 cm long with 3-4 expanded leaves) were directly transplanted from the proliferation medium to Rooting Cylinders (3.5 cm high×3.0 cm in diameter) with soil mixture comprising 55% granular polypropylene foam, 30% peat and 15% perlite (Tivonchem Ltd, Israel) moistened/soaked/with liquid RI medium without AC, supplemented with either 0, 1, 2 mg/l IBA. Results were scored (0=shoot with no root; 1=rotting shoot) after 4 weeks and based on 32 shoots (8 Magenta boxes with 4 cylinders) per treatment. Each experiment was repeated three times. Plantlets were cultured in closed boxes for one week in a growth chamber and then transferred for one week to a greenhouse. Then the plantlets were further transferred to a high humidity chamber without closures for additional 2 weeks for further acclimatization by decreasing the relative humidity stepwise.
# (§2) Two methods were examined to obtained root induction (Table 1). According to the first approach, each regenerated shoot was placed in a tube containing root induction medium comprising 2 mg/l IBA. Using this method, ca. 80% of the shoots formed roots. However, insufficient percentage of these plants was successfully acclimatized in the greenhouse conditions. According to the second approach, regenerated shoots were cultured directly in rooting cylinders, with or without 1 mg/l IBA. […] These plants had better hardening and growth characteristics and easier further acclimatization in the greenhouse conditions (FIG. 5).
# [5] = test system: Ficus carica shoots; assay: Root formation of regenerated shoots, rooting in liquid medium; settings: for Root formation (%) ± SE, Rooting in liquid medium: scored after 4 weeks
# Experimental: as §1, §2
smiles,measurement,setting,value
"CP(=O)(O)CC[C@H](N)C(=O)O [Basta, phosphinothricin]",herbicide effect on non-transformed plants,"[1]; control Brown Turkey cv., increasing concentrations of PPT (FIG. 11)",signs of necrosis and chlorosis on basal leaves following two days and died one week later
same,herbicide effect on resistant (bar transgenic) lines,"[1]; transgenic Brown Turkey cv. tissue culture line 001, 10 ppm Basta",propagated in vitro
"O=C(Nc1ccccc1)Nc1cnns1 [TDZ, N-phenyl-N′-1,2,3-thiadiazol-5-yl urea]",regeneration frequency,[2],ca. 2%
NC[C@H]1O[C@H](O[C@H]2[C@H](O)[C@@H](O[C@H]3O[C@H](CO)[C@@H](O)[C@H](N)[C@H]3O)[C@H](N)C[C@@H]2N)[C@H](O)[C@@H](O)[C@@H]1O [kanamycin],effect on new emerging transgenic shoots,[3]; more than 3 subcultures at 100 mg/l kanamycin on proliferation medium,inhibition of their growth and development
same,minimal concentration for inhibition of adventitious shoot induction,"[3]; non-inoculated leaf explants, cv. Brown Turkey",25 mg/L
"O=C(O)CCCc1c[nH]c2ccccc12 [IBA, indol-3-butyric acid]","Root formation (%) ± SE, Rooting in solid medium",[4]; IBA 1 mg/l,100%
same,"Root formation (%) ± SE, Rooting in solid medium",[4]; IBA 2 mg/l,83 ± 6.27%
same,shoots that formed roots,"[4]; each shoot in a tube with root induction medium, 2 mg/l IBA",ca. 80%
same,"Root formation (%) ± SE, Rooting in liquid medium",[5]; IBA 1 mg/l,47 ± 5.43%
same,"Root formation (%) ± SE, Rooting in liquid medium",[5]; IBA 2 mg/l,81.3 ± 7.61%
same,root formation,"[5]; shoots directly in rooting cylinders, with or without 1 mg/l IBA, after 4 weeks",100%
